In PubChem BioAssay (NCI):
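A five-concentration, 48-hour dose response in 96-well plates underlies each endpoint, interpolated linearly between surrounding concentrations. TGI is the concentration that stops growth completely.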

Legend:
Assay in all cases: NCI-60 cell line screen, 48 h
786-0 renal = tested on: 786-0 renal
CAKI-1 renal = tested on: CAKI-1 renal
HOP-62 NSCLC = tested on: HOP-62 NSCLC
KM12 colon = tested on: KM12 colon
MDA-N = tested on: MDA-N
SF-295 CNS = tested on: SF-295 CNS
SF-539 CNS = tested on: SF-539 CNS
SK-MEL-28 melanoma = tested on: SK-MEL-28 melanoma
SW-620 colon = tested on: SW-620 colon
TK-10 renal = tested on: TK-10 renal
K-562 leukemia = tested on: K-562 leukemia

| Compound | TGI (786-0 renal) | TGI (CAKI-1 renal) | TGI (HOP-62 NSCLC) | TGI (KM12 colon) | TGI (MDA-N) | TGI (SF-295 CNS) | TGI (SF-539 CNS) | TGI (SK-MEL-28 melanoma) | TGI (SW-620 colon) | TGI (TK-10 renal) | TGI (K-562 leukemia) |
| --- | --- | --- | --- | --- | --- | --- | --- | --- | --- | --- | --- |
| Cc1ccc(N=Nc2c(C)nn(C(=O)CC(=O)Nc3ccccc3)c2C)cc1C | > 100 µM | > 100 µM | > 100 µM | > 100 µM | > 100 µM | > 100 µM | > 100 µM | > 100 µM | > 100 µM | > 100 µM | – |
| CCCCOC(=O)CNC(=O)OCCCCC#CC#CCCCCOC(=O)NCC(=O)OCCCC | > 100 µM | > 100 µM | > 100 µM | > 100 µM | – | > 100 µM | > 100 µM | – | > 100 µM | > 100 µM | > 100 µM |
| CC(C)CCCC(C)[C@H]1CCC2[C@@H]3CCC4Cc5nc6c(nc5C[C@]4(C)C3CC[C@@]21C)CC1CC[C@@H]2C(C[C@@H](O)[C@@]3(C)C2C[C@@H]2OC4(CCC(C)CO4)C(C)[C@@H]23)[C@@]1(C)C6 (stereo partly drawn) | > 100 µM | – | > 100 µM | > 100 µM | > 100 µM | > 100 µM | > 100 µM | > 100 µM | > 100 µM | > 100 µM | > 100 µM |
| COC(=O)Cc1ccc2c(c1)Sc1ccc(CC(=O)OC)cc1N2C | > 100 µM | 52 µM | > 100 µM | > 100 µM | – | > 87.1 µM | > 100 µM | > 100 µM | > 100 µM | > 100 µM | > 100 µM |
| COc1cc(-c2nc3cc(F)ccc3s2)ccc1O | > 100 µM | > 100 µM | – | > 100 µM | > 100 µM | > 100 µM | > 100 µM | > 100 µM | > 100 µM | > 100 µM | > 100 µM |
| C=CC[C@H]1[C@@H](O[Si](C)(C)C(C)(C)C)[C@H](n2ccc(=O)[nH]c2=O)O[C@@H]1CO[Si](C)(C)C(C)(C)C | 3.01 µM | 4.42 µM | 4 µM | 3.49 µM | – | 3.93 µM | 10.4 µM | 3.01 µM | 3.39 µM | 7.02 µM | 6.1 µM |
| C=CCC(C)C12CCNC(Cc3ccc(O)cc31)C2C (stereo not drawn) | > 100 µM | – | > 100 µM | > 100 µM | – | > 100 µM | > 100 µM | > 100 µM | > 100 µM | > 100 µM | > 100 µM |
| COc1ccc(CCn2cnc3ccccc32)cc1 | > 100 µM | > 100 µM | > 100 µM | > 100 µM | > 100 µM | > 100 µM | > 100 µM | – | > 100 µM | > 100 µM | > 100 µM |
| CC(=O)OC[C@H]1O[C@@H](O[C@H]2[C@H](OC(C)=O)C=CO[C@@H]2COC(C)=O)C(OC(C)=O)[C@H]2OC(C)(C)O[C@H]21 (stereo partly drawn) | > 100 µM | > 100 µM | > 100 µM | > 100 µM | – | > 100 µM | > 100 µM | > 100 µM | > 100 µM | > 100 µM | > 100 µM |
| N#CC1=C2Sc3ccccc3N2[C@H](c2ccccc2)[C@H]2COC(=O)[C@@H]12 | > 100 µM | 52.8 µM | > 100 µM | > 100 µM | > 100 µM | > 100 µM | > 100 µM | > 100 µM | > 100 µM | > 100 µM | – |
